Assay results from ChEMBL document CHEMBL1158551, “Click reaction synthesis of carbohydrate derivatives from ristocetin aglycon with antibacterial and antiviral activity” (Bioorg Med Chem Lett, 2010).
In brackets after ≈: the same amount, converted by molar mass. Activity calls are given as the source filed them. The rule behind the calls is not given here.

How the values were obtained:
Influenza A virus [1] = experiment: Antiviral activity against influenza A virus H1N1 assessed as inhibition of viral induced cytopathic effect; assay type: functional, organism-based
Influenza A virus [2] = experiment: Antiviral activity against influenza A virus H1N1 assessed as cell viability by cell based MTS assay; assay type: functional, organism-based
Influenza A virus [3] = experiment: Antiviral activity against Influenza A virus H3N2 assessed as inhibition of viral induced cytopathic effect; assay type: functional, organism-based
Influenza A virus [4] = experiment: Antiviral activity against Influenza A virus H3N2 assessed as cell viability by cell based MTS assay; assay type: functional, organism-based
Influenza B virus [5] = experiment: Antiviral activity against influenza B virus assessed as inhibition of viral induced cytopathic effect; assay type: functional, organism-based
Influenza B virus [6] = experiment: Antiviral activity against influenza B virus assessed as cell viability by cell based MTS assay; assay type: functional, organism-based
[7] = Toxicity assessed as increase of ristocetin-induced platelet aggregation; assay type: cell-based
Bacillus subtilis = experiment: Antibacterial activity against Bacillus subtilis ATCC 6633 by broth microdilution method; assay type: functional
Staphylococcus aureus [8] = experiment: Antibacterial activity against methicillin-[…] Staphylococcus aureus ATCC 33591 by broth microdilution method; assay type: functional
Staphylococcus aureus [9] = experiment: Antibacterial activity against methicillin-[…] Staphylococcus aureus ATCC 29213 by broth microdilution method; assay type: functional
[10] = tested on: Staphylococcus epidermidis; experiment: Antibacterial activity against biofilm positive Staphylococcus epidermidis ATCC 35984; assay type: functional
[11] = tested on: Staphylococcus epidermidis; experiment: Antibacterial activity against Staphylococcus epidermidis by broth microdilution method; assay type: functional
Enterococcus faecalis [12] = experiment: Antibacterial activity against vancomycin and teicoplanin-sensitive Enterococcus faecalis ATCC 29212 by broth microdilution method; assay type: functional
Enterococcus faecalis [13] = experiment: Antibacterial activity against vancomycin-resistant and teicoplanin-sensitive Enterococcus faecalis ATCC 5129 expressing VanB gene by broth microdilution method; assay type: functional
Enterococcus faecalis [14] = experiment: Antibacterial activity against vancomycin and teicoplanin-resistant Enterococcus faecalis 15376 expressing VanA gene by broth microdilution method; assay type: functional
Platelet = experiment: Inhibition of ristocetin-induced platelet aggregation at 0.1 mg/ml; assay type: functional, cell-based

Structure (SMILES): COC(=O)[C@H]1NC(=O)[C@H]2NC(=O)[C@H](NC(=O)[C@@H]3NC(=O)[C@H]4NC(=O)[C@H](NC(=O)[C@H](n5cc(CO[C@@H]6O[C@@H](C)[C@H](O)[C@@H](O)[C@H]6O)nn5)c5ccc(O)c(c5)Oc5cc4cc(O)c5C)[C@H](O)c4ccc(cc4)Oc4cc3cc(c4O)Oc3ccc(cc3)[C@H]2O)c2ccc(O)c(c2)-c2c(O)cc(O)cc21
- EC50 (Influenza A virus [1]): > 100 µM
- EC50 (Influenza A virus [2]): > 100 µM
- EC50 (Influenza A virus [3]): > 100 µM
- EC50 (Influenza A virus [4]): > 100 µM
- EC50 (Influenza B virus [5]): > 100 µM
- EC50 (Influenza B virus [6]): > 100 µM
- Activity [7]: Toxic

Structure (SMILES): COC(=O)[C@@H]1NC(=O)[C@H]2NC(=O)[C@H](NC(=O)[C@@H]3NC(=O)[C@H]4NC(=O)[C@H](NC(=O)[C@H](n5cc(CO[C@H]6O[C@H](CO)[C@@H](O[C@H]7O[C@H](CO)[C@@H](O)[C@H](O)[C@H]7O)[C@H](O)[C@H]6O)nn5)c5ccc(O)c(c5)Oc5cc4cc(O)c5C)[C@H](O)c4ccc(cc4)Oc4cc3cc(c4O)Oc3ccc(cc3)[C@H]2O)c2ccc(O)c(c2)-c2c(O)cc(O)cc21
- MBC (Bacillus subtilis): 4 µg/mL (≈ 2.53 µM)
- MIC (Bacillus subtilis): 4 µg/mL (≈ 2.53 µM)
- MBC (Staphylococcus aureus [8]): 256 µg/mL (≈ 162 µM)
- MIC (Staphylococcus aureus [8]): 2 µg/mL (≈ 1.27 µM)
- MBC (Staphylococcus aureus [9]): 256 µg/mL (≈ 162 µM)
- MIC (Staphylococcus aureus [9]): 4 µg/mL (≈ 2.53 µM)
- MBC [10]: 8 µg/mL (≈ 5.06 µM)
- MIC [10]: 4 µg/mL (≈ 2.53 µM)
- MBC [11]: 2 µg/mL (≈ 1.27 µM)
- MIC [11]: 1 µg/mL (≈ 0.633 µM)
- MBC (Enterococcus faecalis [12]): 256 µg/mL (≈ 162 µM)
- MIC (Enterococcus faecalis [12]): 4 µg/mL (≈ 2.53 µM)
- MBC (Enterococcus faecalis [13]): 256 µg/mL (≈ 162 µM)
- MIC (Enterococcus faecalis [13]): 32 µg/mL (≈ 20.2 µM)
- MBC (Enterococcus faecalis [14]): 256 µg/mL (≈ 162 µM)
- MIC (Enterococcus faecalis [14]): 8 µg/mL (≈ 5.06 µM)
- EC50 (Influenza A virus [1]): 16 µM
- EC50 (Influenza A virus [2]): 20 µM
- EC50 (Influenza A virus [3]): > 100 µM
- EC50 (Influenza A virus [4]): > 100 µM
- EC50 (Influenza B virus [5]): 52 µM
- EC50 (Influenza B virus [6]): 61 µM
- inhibition (Platelet): Active

Structure (SMILES): COC(=O)[C@@H]1NC(=O)[C@H]2NC(=O)[C@H](NC(=O)[C@@H]3NC(=O)[C@H]4NC(=O)[C@H](NC(=O)[C@H](n5cc(CO[C@H]6O[C@H](CO)[C@@H](O)[C@H](O)[C@H]6NC(C)=O)nn5)c5ccc(O)c(c5)Oc5cc4cc(O)c5C)[C@H](O)c4ccc(cc4)Oc4cc3cc(c4O)Oc3ccc(cc3)[C@H]2O)c2ccc(O)c(c2)-c2c(O)cc(O)cc21
- MBC (Bacillus subtilis): 8 µg/mL (≈ 5.48 µM)
- MIC (Bacillus subtilis): 4 µg/mL (≈ 2.74 µM)
- MBC (Staphylococcus aureus [8]): 4 µg/mL (≈ 2.74 µM)
- MIC (Staphylococcus aureus [8]): 4 µg/mL (≈ 2.74 µM)
- MBC (Staphylococcus aureus [9]): 2 µg/mL (≈ 1.37 µM)
- MIC (Staphylococcus aureus [9]): 2 µg/mL (≈ 1.37 µM)
- MBC [10]: 2 µg/mL (≈ 1.37 µM)
- MIC [10]: 2 µg/mL (≈ 1.37 µM)
- MBC [11]: 4 µg/mL (≈ 2.74 µM)
- MIC [11]: 2 µg/mL (≈ 1.37 µM)
- MBC (Enterococcus faecalis [12]): 256 µg/mL (≈ 175 µM)
- MIC (Enterococcus faecalis [12]): 8 µg/mL (≈ 5.48 µM)
- MBC (Enterococcus faecalis [13]): 256 µg/mL (≈ 175 µM)
- MIC (Enterococcus faecalis [13]): 16 µg/mL (≈ 11 µM)
- MBC (Enterococcus faecalis [14]): 256 µg/mL (≈ 175 µM)
- MIC (Enterococcus faecalis [14]): 8 µg/mL (≈ 5.48 µM)
- EC50 (Influenza A virus [1]): 9 µM
- EC50 (Influenza A virus [2]): 8.7 µM
- EC50 (Influenza A virus [3]): ≥ 45 µM
- EC50 (Influenza A virus [4]): ≥ 72 µM
- EC50 (Influenza B virus [5]): 32 µM
- EC50 (Influenza B virus [6]): 40 µM
- inhibition (Platelet): inactive

Structure (SMILES): COC(=O)[C@@H]1NC(=O)[C@H]2NC(=O)[C@H](NC(=O)[C@@H]3NC(=O)[C@H]4NC(=O)[C@H](NC(=O)[C@H](n5cc(CO[C@H]6O[C@H](CO)[C@@H](O)[C@H](O)[C@H]6O)nn5)c5ccc(O)c(c5)Oc5cc4cc(O)c5C)[C@H](O)c4ccc(cc4)Oc4cc3cc(c4O)Oc3ccc(cc3)[C@H]2O)c2ccc(O)c(c2)-c2c(O)cc(O)cc21
- MBC (Bacillus subtilis): 8 µg/mL (≈ 5.64 µM)
- MIC (Bacillus subtilis): 2 µg/mL (≈ 1.41 µM)
- MBC (Staphylococcus aureus [8]): 128 µg/mL (≈ 90.2 µM)
- MIC (Staphylococcus aureus [8]): 2 µg/mL (≈ 1.41 µM)
- MBC (Staphylococcus aureus [9]): 256 µg/mL (≈ 180 µM)
- MIC (Staphylococcus aureus [9]): 2 µg/mL (≈ 1.41 µM)
- MBC [10]: 4 µg/mL (≈ 2.82 µM)
- MIC [10]: 2 µg/mL (≈ 1.41 µM)
- MBC [11]: 4 µg/mL (≈ 2.82 µM)
- MIC [11]: 4 µg/mL (≈ 2.82 µM)
- MBC (Enterococcus faecalis [12]): 256 µg/mL (≈ 180 µM)
- MIC (Enterococcus faecalis [12]): 4 µg/mL (≈ 2.82 µM)
- MBC (Enterococcus faecalis [13]): 256 µg/mL (≈ 180 µM)
- MIC (Enterococcus faecalis [13]): 8 µg/mL (≈ 5.64 µM)
- MBC (Enterococcus faecalis [14]): 256 µg/mL (≈ 180 µM)
- MIC (Enterococcus faecalis [14]): 4 µg/mL (≈ 2.82 µM)
- EC50 (Influenza A virus [1]): 14 µM
- EC50 (Influenza A virus [2]): 16 µM
- EC50 (Influenza A virus [3]): ≥ 45 µM
- EC50 (Influenza A virus [4]): ≥ 30 µM
- EC50 (Influenza B virus [5]): 32 µM
- EC50 (Influenza B virus [6]): 33 µM
- inhibition (Platelet): Active

Structure (SMILES): COC(=O)[C@@H]1NC(=O)[C@H]2NC(=O)[C@H](NC(=O)[C@@H]3NC(=O)[C@H]4NC(=O)[C@H](NC(=O)[C@H](n5cc(CO[C@H]6O[C@H](CO)[C@@H](O)[C@H](O)[C@@H]6O)nn5)c5ccc(O)c(c5)Oc5cc4cc(O)c5C)[C@H](O)c4ccc(cc4)Oc4cc3cc(c4O)Oc3ccc(cc3)[C@H]2O)c2ccc(O)c(c2)-c2c(O)cc(O)cc21
- MBC (Bacillus subtilis): 4 µg/mL (≈ 2.82 µM)
- MIC (Bacillus subtilis): 4 µg/mL (≈ 2.82 µM)
- MBC (Staphylococcus aureus [8]): 16 µg/mL (≈ 11.3 µM)
- MIC (Staphylococcus aureus [8]): 4 µg/mL (≈ 2.82 µM)
- MIC (Staphylococcus aureus [9]): 2 µg/mL (≈ 1.41 µM)
- MBC [10]: 8 µg/mL (≈ 5.64 µM)
- MIC [10]: 4 µg/mL (≈ 2.82 µM)
- MBC [11]: 8 µg/mL (≈ 5.64 µM)
- MIC [11]: 4 µg/mL (≈ 2.82 µM)
- MBC (Enterococcus faecalis [12]): 256 µg/mL (≈ 180 µM)
- MIC (Enterococcus faecalis [12]): 8 µg/mL (≈ 5.64 µM)
- MBC (Enterococcus faecalis [13]): 256 µg/mL (≈ 180 µM)
- MIC (Enterococcus faecalis [13]): 16 µg/mL (≈ 11.3 µM)
- MBC (Enterococcus faecalis [14]): 64 µg/mL (≈ 45.1 µM)
- MIC (Enterococcus faecalis [14]): 16 µg/mL (≈ 11.3 µM)
- EC50 (Influenza A virus [1]): 10 µM
- EC50 (Influenza A virus [2]): 22 µM
- EC50 (Influenza A virus [3]): ≥ 45 µM
- EC50 (Influenza A virus [4]): ≥ 46 µM
- EC50 (Influenza B virus [5]): ≥ 45 µM
- EC50 (Influenza B virus [6]): ≥ 50 µM
- inhibition (Platelet): inactive
